Experimental data reported in patent US6743446B2, “Methods for stabilizing biologically active agents encapsulated in biodegradable controlled-release polymers” (The Ohio State University Research Foundation, priority 1999, dated 2004).
Where a name gives a salt, the structure may show the parent alone. Blank lines part the entries; values can stand above or below the compound they belong to.

Assays:
[1] = pH measurement of saturated basic salts in water; format: physicochemical; details: excess basic salt suspended in water, 37° C., 7 days
Description: The suspension was then incubated at 37° C. for 7 days. The pH of the supernatant was determined with a Corning 430 pH meter (Corning Inc., NY).

[2] = pH of saturated basic salt suspension after addition of 1 N HCl; format: physicochemical; details: acid added to the saturated suspension with excess salt, 37° C., 3 days
Source text: The difference of the neutralization effect from the salts is also reflected in the different water contents of their PLGA devices.

[3] = VCR and VBL stability and release in PLGA microspheres by HPLC; format: physicochemical
Description: All other reagents and solvents were of analytical grade or purer and purchased from commercial suppliers. Microspheres Preparation Microspheres were prepared by a standard oil-in-oil emulsion-solvent extraction method (17). […] The resulting solution or suspension was added drop-wise to 25 ml of oil (95% cottonseed oil and 5% Span 85 emulsifier) stirred at 500 rpm and room temperature. After 2.5 h of microsphere hardening. 40 ml of petroleum ether (bp: 50 to 100° C.) were added to the emulsion to extract CAN. The emulsion was stirred for additional 15 min, the particles were collected by filtration, and washed 3 times with petroleum ether. The hardened microspheres were flash-frozen with liquid nitrogen and lyophilized with a Labconco Freezone 6 system for 1 day.
The HPLC system consisted of the following: a 510 pump, a 717 Plus autosampler, and a 486 UV detector (waters, Milford, Mass.). […] The mobile phase was composed of aqueous solution of sodium phosphate (10 mM) and methanol 40:60 (v/v) (pH 7.0). For UV detection, the wavelength was set to 298 nm.
Drug release from microspheres was carried out in PBS (127 mM NaCl, 3 mM KCl, 8 mM Na2HPO4, 1 mM KH2PO4, pH 7.4) containing Tween 80 (0.02% w/w/) (PBST) at 37° C. under perfect sink conditions. […] Microspheres were weighed and dissolved in a 50% (v/v) ACN water solution. The precipitated polymer and salts were spun down by brief centrifugation. An aliquot of the supernatant containing drug was removed and analyzed by HPLC.

[4] = system: Balb/c 3T3 fibroblasts; experiment: Bioassay for bFGF, cell proliferation (3H-thymidine incorporation); format: cell-based; details: bFGF from Mg(OH)2/BSA/heparin PLGA millicylinders, release and residual fraction
Description: The biological activity of bFGF was determined by a cell proliferation assay (20). Balb/c 3T3 fibroblasts (25,000/well, CCL-163, ATCQ in Dulbecco's modified Eagle's medium (DMEM) containing 10% bovine calf serum, […] were seeded (200 μl/well) on 96-well plates. The cells were grown to confluence for one week without changing the medium. On day 7, bFGF samples or standards (10 μl) in the release medium were added and followed 20 h later by addition of 1 μCi of 3H-thymidine (6.7 Ci/mmol, DuPont/NEN® Research Products, Boston, Mass.) per well. After another 6-8 h, the cells were collected on filter paper by using a PHD TM cell harvester (Cambridge Technology Inc.). The harvested cells were resuspended in 3 ml of scintillation cocktail 3a7OB (Research Products International Corp., IL) and counted (Beckman LS 1701 scintillation counter).

[5] = system: nude mice; experiment: In vivo angiogenesis of subcutaneously implanted bFGF devices; details: BSA/Mg(OH)2-containing PLGA formulation implanted subcutaneously, data not shown
Source text: In both cases, a controlled release of protein was observed over 28 days (data not shown) resulting in a recovery (released+soluble residue fraction) of >80% (Table 3). In contrast, when the base was removed from the formulation (18% gum arabic), only 30% protein was recovered by the immunoassay. Therefore, the stability characteristic of BMP-2 in PLGA millicylinders was very similar to that of bFGF (although additional stabilizers were used for bFGF) with and without the addition of the basic additive. For both growth factors, in the absence of basic additive, the protein was released mostly on the first day and only a small amount of protein could be recovered from the polymer after 28 days release. In the presence of the basic salt, both proteins were continuously released with >80% recoverable in the 28-day experiment. Moreover, the in vivo biological activities (angiogenesis in nude mice for the bFGF and osteogenesis in rats for the BMP-2) of the BSA/Mg(OH)2-containing formulations were also confirmed when the devices were implanted subcutaneously (data not shown).

[6] = reference (31); cited from earlier work
[7] = target: tPA (Homo sapiens, UniProt P00750); experiment: tPA release from PLGA millicylinders by activity analysis; format: physicochemical
Sequence of tPA (P00750 36-562): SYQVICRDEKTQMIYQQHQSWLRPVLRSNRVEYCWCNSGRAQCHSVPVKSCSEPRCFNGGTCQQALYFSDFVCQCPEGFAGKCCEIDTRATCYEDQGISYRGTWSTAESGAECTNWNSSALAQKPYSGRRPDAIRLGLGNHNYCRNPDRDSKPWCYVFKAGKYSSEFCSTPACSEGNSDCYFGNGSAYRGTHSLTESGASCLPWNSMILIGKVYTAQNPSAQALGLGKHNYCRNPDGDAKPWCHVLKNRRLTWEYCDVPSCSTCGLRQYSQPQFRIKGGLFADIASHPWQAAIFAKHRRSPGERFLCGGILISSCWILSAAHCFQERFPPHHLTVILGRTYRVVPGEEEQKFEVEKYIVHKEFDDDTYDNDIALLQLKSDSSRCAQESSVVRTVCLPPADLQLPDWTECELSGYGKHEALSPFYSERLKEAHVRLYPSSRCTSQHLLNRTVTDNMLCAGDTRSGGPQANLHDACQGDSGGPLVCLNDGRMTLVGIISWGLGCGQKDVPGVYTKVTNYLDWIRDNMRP
Description: Here, by using this rationale, tPA was successfully encapsulated into PLGA implants. tPA, a protein with a MW of ˜60 K Da is a tissue type endogenous serine proteaese involved in thrombi dissolution. The FDA has approved the use of recombinant tPA in the treatment of myocardial infarction. Controlled release systems for local delivery was developed by using hydrogel to control wound healing. A multi-drug controlled release implant with tPA encapsulated was also tested for the intraocular management of proliferative vitroretinopahty (PVR). […] Arginine hydrochloride and BSA were added in the release medium to improve the stability of released tPA. The release profile and active residue of tPA after release was evaluated by activity analysis. […] As far as is known, only very few protein formulations have shown continuous and complete release over one month period without losing activity.

[8] = target: T1, BSA (Bos taurus, UniProt P02769); experiment: BSA release and aggregation in PLGA millicylinders incubated in PBST at 37° C.; format: physicochemical, bovine
T1 construct: purchased Sigma Chemical Co. (St. Louis, Mo.) A-3059
T1 sequence (P02769 25-607): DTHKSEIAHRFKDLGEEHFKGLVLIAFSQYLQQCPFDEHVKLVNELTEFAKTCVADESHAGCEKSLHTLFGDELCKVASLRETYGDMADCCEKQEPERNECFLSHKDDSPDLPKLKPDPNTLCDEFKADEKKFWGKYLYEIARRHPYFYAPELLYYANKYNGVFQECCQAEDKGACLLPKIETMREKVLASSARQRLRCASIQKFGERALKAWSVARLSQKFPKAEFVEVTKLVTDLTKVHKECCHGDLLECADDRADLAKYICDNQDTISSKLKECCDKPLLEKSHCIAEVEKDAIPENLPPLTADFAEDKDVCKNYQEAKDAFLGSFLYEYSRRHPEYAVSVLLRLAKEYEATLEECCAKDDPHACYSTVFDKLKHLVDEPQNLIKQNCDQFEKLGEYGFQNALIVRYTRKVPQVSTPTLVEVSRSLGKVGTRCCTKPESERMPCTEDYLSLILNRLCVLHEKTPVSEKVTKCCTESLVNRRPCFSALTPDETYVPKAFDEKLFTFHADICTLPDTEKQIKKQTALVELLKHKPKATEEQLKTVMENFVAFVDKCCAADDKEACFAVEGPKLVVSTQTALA
Description: A solvent extrusion method similar to that used previously by our group for intraocular implants was used to prepare the PLGA cylinders with a diameter on the millimeter scale, which we term millicylinders. Briefly, a uniform suspension of sieved protein powder (<90 μm) with or without basic salt in 50% (w/w) acetone-PLGA 50/50 solution was loaded in a syringe and extruded into a silicone tubing (I.D. 0.8 mm) at about 0.1 ml/min. The solvent extruded suspension was dried at room temperature for 24 h and then dried in a vacuum oven at 45° C. for another 24 h before testing. The protein loading was calculated as the percentage of amount of BSA versus the total weight of mixture (i.e., protein, polymer, and salt).
Release of protein was carried out in PBST (which consists of PBS (7.74 mM Na2HPO4, 2.26 mM NaH2O4, 137 mM NaCl, and 3 mM KCl, pH 7.4), and 0.02% w/v Tween® 80) at 37° C. under perfect sink conditions. Millicylinders (10×0.8 mm, 5-10 mg or microspheres (about 20 mg) were placed in I ml of the release medium and the medium was replaced at each time point. The protein content was determined by using Coornassie plus protein assay reagent, which is also compatible with denaturing agents (e.g., 6 M urea) and reducing agents (e.g., 10 mM DTT).
Protein stability was assessed by the percentage of water insoluble non-covalent BSA aggregates generated within the implants versus the initial encapsulated protein. Protein stability within PLGA implants was analyzed as follows: First, millicylinders with a length of 1 cm were incubated under 80% and 96% relative humidity (RH) at 37° C. for 21 days. Then, the polymer was dissolved in acetone and centrifuged to spin down the protein. The remaining protein pellet was washed three times with acetone and then air-dried. The final protein pellet was analyzed as in Analysis of the Protein Extracted from PLGA Implants. The protein remaining in PLGA implants after release in PBST at 37° C. for 28 days was also extracted similarly and analyzed as above.
The BSA pellet extracted from PLGA implants was first reconstituted in PBST and incubated at 37° C. overnight to determine the soluble protein fraction remaining in the polymer. Any remaining aggregates were collected by centrifugation again, and brought up in the denaturing solvent (PBST/6 M urea/1 mM EDTA) and incubated at 37° C. for 30 mm to dissolve non-covalent bonded BSA aggregates. Then, any final undissolved BSA aggregates were collected again and dissolved in the reducing solvent (the denaturing solvent plus 10 mM DTT) to dissolve any disulfide-bonded aggregates.
For quantitation of soluble BSA, a modified Bradford assay was used as follows: 10 μl of standard or sample in PBST was added to 250 μl of Coomassle reagent/well on a 96-well plate and then the plate was read at 595 nm using a Dynex MRX microplate reader (Dynex Technology, Inc., Chantilly, Va.). The concentration range of the standard curve was 50 to 1000 μg/ml. For quantitation of non-covalent and covalent BSA aggregates, the solvents used for preparation of standards and samples were 6 M urea and 6 M urea/10 mM DTT, respectively.
The solvent-extruded suspension was dried at room temperature (24 h) and then dried in a vacuum oven at 45° C. (24 h). For preparation of bFGF millicylinders, bFGF was combined with heparin, sucrose and BSA additives at a weight ratio (additive bFGF) of 1, 180, and 1000, respectively, in 0.5 mM EDTA and 10 mM sodium phosphate buffer (pH 7.4). The solution was lyophilized for 2 days at room temperature using a Labconco Freeze Dry System (Kansas City, Mo.) to a fine powder with 4% moisture (determined by a Karl Fisher Titrator (Model DL 18, Mettler-Toledo Inc., NJ)) and sieved before suspension in PLGA-acetone and extrusion. For preparation of […] millicylinders, solutions of BMP-2 combined with BSA or gum arabic (Sigma, St. Louis, Mo.) were similarly lyophilized and sieved. The millicylinders; were prepared in the same way as for BSA/PLGA millicylinders. […]

[9] = target: T1, BSA; experiment: BSA release and aggregation in W/O/W PLGA microspheres in PBST at 37° C.; format: physicochemical, bovine
[10] = target: T1, BSA; experiment: Simulation of BSA instability in the polymer microclimate; format: physicochemical, bovine; details: Simulated: lyophilized BSA at pH 2 under 86% R.H. at 37° C.
Description: Three experiments were designed to simulate the potential deleterious conditions in PLGA devices. […] At various times, the protein was reconstituted in PBST and examined for the type of aggregates as described above. To examine the effect of water, water was directly added to lyophilized BSA at pH 2, sealed and then incubated at 37° C. for 1 week, and analyzed as above (16). […] Loss of BSA content from solution was used to determine the extent of BSA adsorption to the polymer.

pH of saturated solution [1]: 7.34 | pH after addition of 100 μl of 1 N HCl [2]: 5.36 | drug degraded to the basic product during microsphere preparation ([3]; VCR PLGA microspheres with co-encapsulated base): 3%
Compound: O=C([O-])[O-].[Zn+2] [ZnCO3]

stability of encapsulated drug ([3]; PLGA (50% D,L lactide content) microspheres): highly stabilized
Compound: CC[C@]1(O)C[C@@H]2CN(CCc3c([nH]c4ccccc34)[C@@](C(=O)OC)(c3cc4c(cc3OC)N(C)[C@H]3[C@@](O)(C(=O)OC)[C@H](OC(C)=O)[C@]5(CC)C=CCN6CC[C@]43[C@@H]65)C2)C1 [VBL, vinblastine sulfate]

pH of saturated solution [1]: 9.26 | pH after addition of 100 μl of 1 N HCl [2]: 6.07
Compound: O=C([O-])[O-].[Ca+2] [CaCO3]

pH of saturated solution [1]: 12.4 | pH after addition of 100 μl of 1 N HCl [2]: 12.20
Compound: [Ca+2].[OH-].[OH-] [Ca(OH)2]

The remaining lines, values behind:

Compound: bFGF: recombinant human basic fibroblast growth factor
bFGF bioactive over the entire release interval [4]: 65-85% | in vivo biological activity, angiogenesis [5]: confirmed | in vivo serum half-life [6]: < 3 min

Compound: tPA: tissue type endogenous serine protease, encapsulated as 10% tPA powder in PLGA millicylinders
one month release of tPA ([7]; 10% tPA powder in PLGA millicylinders with 3% Mg(OH)2): 98.0±0.2% | one month release of tPA ([7]; 10% tPA powder in PLGA millicylinders without Mg(OH)2): 77.1±2.6%

Compound: O=P([O-])([O-])[O-].O=P([O-])([O-])[O-].[Ca+2].[Ca+2].[Ca+2] [Ca3(PO4)2]
pH of saturated solution [1]: 7.77 | pH after addition of 100 μl of 1 N HCl [2]: 3.71

Compound: Bovine serum albumin [BSA]
initially encapsulated BSA that formed non-covalent aggregates ([8]; 15% BSA/PLGA implants without base, 2 weeks release in PBST at 37° C., previous results): more than 60% | Aggregates soluble in denaturing solvent ([8]; Encapsulated: 15% BSA in PLGA millicylinders in PBST at 37° C., PBST with 6M urea, 1 mM EDTA): >98% | Peptide fragmentation ([8]; Encapsulated: 15% BSA in PLGA millicylinders in PBST at 37° C., SDS-PAGE): 25, 40, and 55 kDa | Time to 50% aggregation ([8]; Encapsulated: 15% BSA in PLGA millicylinders incubated in PBST at 37° C.): 12 days | protein released in 1 day ([8]; PLGA millicylinders, 20% BSA loading without the base): > 90% | non-covalent aggregates ([9]; BSA in PLGA microspheres by solvent evaporation, no base): 25-75% | disulfide-bonded aggregates ([9]; BSA in PLGA microspheres, some control experiments): < 5% | Time to 50% aggregation [10]: 7 days | Aggregates soluble in denaturing solvent ([10]; PBST with 6M urea, 1 mM EDTA): >94% | Peptide fragmentation ([10]; SDS-PAGE): 25, 40, and 55 kDa

Compound: O=P([O-])([O-])[O-].O=P([O-])([O-])[O-].[Zn+2].[Zn+2].[Zn+2] [Zn3(PO4)2]
pH of saturated solution [1]: 6.82 | pH after addition of 100 μl of 1 N HCl [2]: 1.53

Compound: O=C([O-])[O-].[Mg+2] [MgCO3]
pH of saturated solution [1]: 9.75 | pH after addition of 100 μl of 1 N HCl [2]: 9.01 | stabilization of BSA ([8]; PLGA millicylinders): stabilized BSA much better than the Mg(OH)2 | Released ([9]; 3% BSA/PLGA50/50 (0.20 dl/g) microspheres, 51-day release in PBST at 37° C.): more than 50% | BSA release after the first day burst over 28 days ([9]; 4% BSA/PLGA50/50 (0.64 dl/g) W/O/W microspheres with basic salt): up to 10% | burst ([9]; BSA/PLGA (0.20 dl/g) microspheres, data not shown): 32%

Compound: [OH-].[OH-].[Zn+2] [Zn(OH)2]
pH of saturated solution [1]: 8.85 | pH after addition of 100 μl of 1 N HCl [2]: 5.86
